Measurements from US10947188B2, “Small molecule ferroptosis inducers” (THE TRUSTEES OF COLUMBIA UNIVERSITY IN THE CITY OF NEW YORK, priority 2016, dated 2021).

Experiments:
BJeLR = experiment: Modulatory profiling: Alamar Blue viability, lethal compound cotreated with death modulator (EC50, AUC); type: cell-based, human; design: AUC, modulator BJ.Gd3+ / AUC, modulator BJ.LNAME / AUC, modulator BJ.Lmin / AUC, modulator BJ.3MA / AUC, modulator BJ.ALLN / AUC, modulator BJ.Boc D / AUC, modulator BJ.CHX / AUC, modulator BJ.Co2+ / AUC, modulator BJ.Nec-1 / AUC, modulator BJ.Pepstatin / AUC, modulator BJ.TLCK / AUC, modulator BJ.atoc / AUC, modulator BJ.trolox / AUC, modulator BJ.zVAD: unit not given beside the values; conditions: BJeLR cells, modulatory profile value (AUC); on AUC, modulator BJ.3MA: reference of the scale not given here; on AUC, modulator BJ.ALLN: reference of the scale not given here; on AUC, modulator BJ.Boc D: reference of the scale not given here; on AUC, modulator BJ.CHX: reference of the scale not given here; on AUC, modulator BJ.Co2+: reference of the scale not given here; on AUC, modulator BJ.DPQ: reference of the scale not given here; on AUC, modulator BJ.Gd3+: reference of the scale not given here; on AUC, modulator BJ.LNAME: reference of the scale not given here; on AUC, modulator BJ.NAD+: reference of the scale not given here; on AUC, modulator BJ.NMMA: reference of the scale not given here; on AUC, modulator BJ.Nec-1: reference of the scale not given here; on AUC, modulator BJ.Pepstatin: reference of the scale not given here; on AUC, modulator BJ.TLCK: reference of the scale not given here
HT-1080 = experiment: as above; type: cell-based; design: AUC, modulator HT.3MA / AUC, modulator HT.ALLN / AUC HT.ATA / AUC HT.ActD / AUC HT.BHA / AUC HT.BHT / AUC HT.BocD / AUC HT.CHX / AUC HT.Co2+ / AUC HT.DPQ / AUC HT.EGTA / AUC HT.Lmim / AUC HT.NAD+ / AUC HT.Nec-1 / AUC HT.SP600125 / AUC HT.TLCK / AUC HT.U0126: unit not given beside the values; on AUC HT.BHA: reference of the scale not given here; on AUC HT.EGTA: reference of the scale not given here

SMILES: COc1cccc2c1C(=O)c1c(O)c3c(c(O)c1C2=O)C[C@@](O)(C(=O)CO)C[C@@H]3O[C@H]1C[C@H](N)[C@H](O)[C@H](C)O1 [Doxorubicin]
- AUC, modulator BJ.3MA (BJeLR; lethal compound cotreated with modulator 3MA): 0.03113
- AUC, modulator BJ.ALLN (BJeLR; lethal compound cotreated with modulator ALLN): 0.01555
- AUC, modulator BJ.Boc D (BJeLR; lethal compound cotreated with modulator Boc D): 0.04966
- AUC, modulator BJ.CHX (BJeLR; lethal compound cotreated with modulator CHX): 0.1412
- AUC, modulator BJ.Co2+ (BJeLR; lethal compound cotreated with modulator Co2+): 0.1971
- AUC, modulator BJ.DPQ (BJeLR; lethal compound cotreated with modulator DPQ): 0.004462
- AUC, modulator BJ.Gd3+ (BJeLR; lethal compound cotreated with modulator Gd3+): −0.01105
- AUC, modulator BJ.LNAME (BJeLR; lethal compound cotreated with modulator LNAME): 0.01382
- AUC, modulator BJ.Lmin/NAD+ (BJeLR; lethal compound cotreated with modulator Lmin/NAD+): 0.1477
- AUC, modulator BJ.Lmin (BJeLR; lethal compound cotreated with modulator Lmin): 0.05475
- AUC, modulator BJ.NAD+ (BJeLR; lethal compound cotreated with modulator NAD+): 0.1339
- AUC, modulator BJ.NMMA (BJeLR; lethal compound cotreated with modulator NMMA): −0.007486
- AUC, modulator BJ.Nec-1 (BJeLR; lethal compound cotreated with modulator Nec-1): −0.003677
- AUC, modulator BJ.Pepstatin (BJeLR; lethal compound cotreated with modulator Pepstatin): 0.01775
- AUC, modulator BJ.TLCK (BJeLR; lethal compound cotreated with modulator TLCK): 0.03307
- AUC, modulator BJ.atoc (BJeLR; lethal compound cotreated with modulator atoc): 0.01689
- AUC, modulator BJ.trolox (BJeLR; lethal compound cotreated with modulator trolox): 0.01164
- AUC, modulator BJ.zVAD (BJeLR; lethal compound cotreated with modulator zVAD): 0.05543
- AUC HT.ATA (HT-1080; HT-1080, modulator ATA): 0.02841
- AUC HT.ActD (HT-1080; HT-1080, modulator ActD): 0.007993
- AUC HT.BHA (HT-1080; HT-1080, modulator BHA): 0.02167
- AUC HT.BHT (HT-1080; HT-1080, modulator BHT): −0.06815
- AUC HT.BocD (HT-1080; HT-1080, modulator BocD): 0.05959
- AUC HT.CHX (HT-1080; HT-1080, modulator CHX): 0.08993
- AUC HT.Co2+ (HT-1080; HT-1080, modulator Co2+): 0.2627
- AUC HT.CspA (HT-1080; HT-1080, modulator CspA): −0.1098
- AUC HT.DPQ (HT-1080; HT-1080, modulator DPQ): 0.01107
- AUC HT.EGTA (HT-1080; HT-1080, modulator EGTA): 0.03492
- AUC HT.Gd3+ (HT-1080; HT-1080, modulator Gd3+): 0.03741
- AUC HT.LNAME (HT-1080; HT-1080, modulator LNAME): 0.006685
- AUC HT.Lmim (HT-1080; HT-1080, modulator Lmim): 0.08822
- AUC HT.NAD+ (HT-1080; HT-1080, modulator NAD+): 0.1872
- AUC HT.NMMA (HT-1080; HT-1080, modulator NMMA): 0.02832
- AUC HT.Nec-1 (HT-1080; HT-1080, modulator Nec-1): 0.007577
- AUC HT.Pepstatin (HT-1080; HT-1080, modulator Pepstatin): 0.008958
- AUC HT.SP600125 (HT-1080; HT-1080, modulator SP600125): −0.02148
- AUC HT.TLCK (HT-1080; HT-1080, modulator TLCK): 0.0633
- AUC HT.U0126 (HT-1080; HT-1080, modulator U0126): −0.02036
- HT.atoc (AUC) (HT-1080; HT-1080, modulator atoc): 0.00993
- HT.bCarotene (AUC) (HT-1080; HT-1080, modulator bCarotene): 0.01512
- HT.deferox (AUC) (HT-1080; HT-1080, modulator deferox): 0.2044
- HT.digoxin (AUC) (HT-1080; HT-1080, modulator digoxin): 0.1981
- HT.trolox (AUC) (HT-1080; HT-1080, modulator trolox): −0.01413
- HT.zVAD (AUC) (HT-1080; HT-1080, modulator zVAD): 0.05138
- AUC, modulator HT.3MA (HT-1080; HT-1080 cells, lethal compound cotreated with modulator 3MA, modulatory profile value (AUC)): 0.03088
- AUC, modulator HT.ALLN (HT-1080; HT-1080 cells, lethal compound cotreated with modulator ALLN, modulatory profile value (AUC)): 0.03102
